Data on 3 compounds can be found in paper PMC3723632, “A Multi-targeted Drug Candidate with Dual Anti-HIV and Anti-HSV Activity” (PLoS Pathogens, 2013).

Converted amounts (≈) assume the structure as drawn. Read-outs that look alike come from different tables or passages of the source.

One assay deals with HIV-1(IIIB). Kind of assay: Anti-HIV-1 activity in CD4+ T-lymphocyte CEM cell cultures. Type of assay: cell-based. The conditions noted are these: Human immunodeficiency virus 1, CCRF-CEM, virus-induced cytopathicity. The source says: (§1) Human CD4 ^+ T-lymphocyte CEM cell cultures were inoculated with HIV-1 and HIV-2 and exposed to adefovir, tenofovir, or PMEO-DAPym. […]
(Cytopathic effects are the visible damage that an infection or toxin causes in cultured cells.)

Another assay concerns HIV-2(ROD). Kind of assay: Anti-HIV-2 activity in CD4+ T-lymphocyte CEM cell cultures. The class given is cell-based. The conditions noted are these: Human immunodeficiency virus 2, CCRF-CEM.
From the text: as §1

The test system of assay [1] is HSV-1 (KOS and clinical isolates). Kind of assay: microbe, parasite or virus in culture. The class given is cell-based. The conditions noted are these: Human alphaherpesvirus 1, HEL. How it is done:
(§2) Figure 2 Antiherpetic activity of test compounds in cell culture. Confluent HEL cell cultures were exposed to 100 TCID50 of clinical virus isolates [wild-type HSV-1 (panel A), wild-type HSV-2 (panel B), TK^− HSV-1 (panel C) and TK^− HSV-2 (panel D)] in the presence of drugs at different concentrations and incubated for 3 days at 37°C. […] Data shown are the means of at least two independent experiments.

In assay [2] the test system is HSV-2 (G and clinical isolates). Kind of assay: microbe, parasite or virus in culture. The class given is cell-based. To be noted: Human alphaherpesvirus 2, HEL. The protocol:
as §2

Another assay relates to HSV-1 and HSV-2 strains. Kind of assay: HSV cytopathicity assay in HEL cell cultures, HSV-1 and HSV-2 stated together. The class given is cell-based. The protocol:
Figure 2 Antiherpetic activity of test compounds in cell culture. Confluent HEL cell cultures were exposed to 100 TCID50 of clinical virus isolates [wild-type HSV-1 (panel A), wild-type HSV-2 (panel B), TK^− HSV-1 (panel C) and TK^− HSV-2 (panel D)] in the presence of drugs at different concentrations and incubated for 3 days at 37°C. Then, the cytopathicity was determined microscopically and the EC50 values determined. ^aEC50, 50% effective concentration or compound concentration required to reduce virus-induced cytopathicity (CPE) by 50%. Data shown are the means of at least two independent experiments. The HSV-1, HSV-2, HSV-1 TK^−, and HSV-2 TK^− clinical isolates have been described in reference 19, including the nature of the mutations in the TK gene of the acyclovir-resistant virus strains.

In another assay the test system is CCR5. Kind of assay: Flow cytometry of CCR5 expression on PBMC. Type of assay: cell-based, human. The conditions noted are these: for decrease of CCR5 expression on the cell surface / CCR5 decrease: 24 h; for CCR5 expression, % of control: 72 h. The protocol:
Figure 9 Expression of CC-chemokines, CCR5 and chemokine mRNA expression in PBMC cultures after drug treatment. Panel A: Production of CC-chemokines by PBMC and the effects of adefovir, tenofovir, and PMEO-DAPym on the expression of the CCR5 receptor. Freshly isolated PBMCs from four healthy donors were incubated for 24 h with medium only (NC) or with adefovir, tenofovir, or PMEO-DAPym. We collected the supernatants and measured the concentrations of MIP-1α (▪), MIP-1β (▴), and RANTES (•) using a Bioplex system (Bio-Rad, Hercules, CA). Shown are means ± SEM. The cells were also collected, and the expression of the CCR5 receptor (□) was measured with flow cytometry using the PE-labeled CCR5 (clone 2D7) mAb; it is shown as percentage of control (± SEM) from four independent representative experiments. Panel B: Chemokine mRNA expression upon PMEO-DAPym exposure to PBMC. RT-PCR analysis of MIP-1α, MIP-1β, RANTES, and GAPDH (control) expression in PBMC treated with 100-µg/ml PMEO-DAPym for 4 h. Similar results were obtained with PBMC from three different donors. Results from one representative donor are shown.
Figure 11 Expression of the HIV-1 coreceptor CCR5 on PBMCs after treatment with adefovir, tenofovir, or PMEO-DAPym. We treated PBMC with the drugs for 24 h and collected and analyzed the cells using flow cytometry. Cell surface expression of CD4 and the chemokine receptor CCR5 were measured with the fluorescein isothiocyanate-labeled CD4 specific mAb (clone SK3) and the phycoerythrin-labeled CCR5 (clone 2D7). The percentages of positive cells in each quadrant of the dot plots are given. The data shown are from one representative experiment that was independently repeated at least four times. TEXT PRINTED IN THE PICTURE: adefovir: 54% (500 μg/ml); 7% (500 μg/ml); 6% (500 μg/ml) | tenofovir: 50% (500 μg/ml); 6% (500 μg/ml); 5% (500 μg/ml) | PMEO-DAPym: 54% (500 μg/ml); 1% (500 μg/ml); 2% (500 μg/ml); 55% (100 μg/ml); 1% (100 μg/ml); 2% (100 μg/ml); 54% (20 μg/ml); 3% (20 μg/ml); 3% (20 μg/ml) DOUBTS OF THE COPYIST ABOUT THIS PICTURE: The percentages are quadrant labels in dot plots (axes: CD4 expression, CCR5 expression). No measure is printed beside them. For each plot they are listed in the order upper left, upper right, lower right. / The Control plot (51%, 8%, 6%) is left out because it is not a substance.
PBMC were cultured in the presence of adefovir, tenofovir, and PMEO-DAPym and incubated at 37°C in a humidified, 5% CO2-controlled atmosphere. The expression of cellular activation markers was measured after 3 days of culture. Briefly, after washing the cells with PBS containing 2% FCS, we incubated them with PerCP-conjugated anti-CD4 mAb (clone SK3) in combination with PE-conjugated anti-CD25, anti-CD69, or anti-HLA-DR mAbs for 30 min at room temperature. For aspecific background staining, cells were stained in parallel with Simultest Control IgG γ1/γ2a and PerCP-conjugated mouse IgG1. Finally, the cells were washed with PBS, fixed with 1% formaldehyde solution, and analyzed with a FACSCalibur (BD Biosciences, San Jose, CA); data were acquired with CellQuest software and further analyzed with the FLOWJO software (Tree Star, San Carlos, CA). […], and PBMC were incubated with PerCP-conjugated anti-CD4 mAb (clone SK3) in combination with APC-conjugated anti-CXCR4 mAb (clone 12G5) and PE-conjugated anti-CCR5 (clone 2D7) or anti-CXCR3 (clone 1C6). To evaluate the biological effects of the β-chemokines produced by drug-treated PBMC, freshly isolated PBMC were incubated for 1 h at 37°C with supernatants collected from PBMC cultures treated with compounds for 24 h. Then, cells were incubated with PerCP-conjugated anti-CD4 mAb (clone SK3) in combination with PE-conjugated anti-CCR5 mAb (clone 2D7) for 30 min at room temperature. […]

For the next assay, the system named is HSV-2 (G). Kind of assay: HSV-2 infection of primary monocyte/macrophage (M/M) cultures. Type of assay: cell-based.
[3] abbreviates: HIV-2(ROD), CEM, virus-induced cytopathicity, read-out: EC50.
[4] abbreviates: HSV-1, average of six TK-deficient clinical isolates.
Setting [5] is: HSV-1, average of six clinical isolates.
The mark [6] stands for this setting: HSV-2, average of seven TK-deficient clinical isolates.
Setting [7] is: HSV-2, average of seven clinical isolates.
[8] abbreviates: thirteen clinical wild-type HSV-1 and HSV-2 isolates, read-out: average EC50.
The mark [9] stands for this setting: wild-type laboratory HSV-1 and HSV-2 strains, range, read-out: EC50.

The term EC50 denotes the concentration needed to bring the measured effect to its halfway point.

Regarding `Nc1cc(OCCOCP(=O)(O)O)nc(N)n1` [PMEO-DAPym, 6-phosphonylmethoxyethoxy-2,4-diaminopyrimidine], the EC50 with HIV-1(IIIB) stood at 0.9 ± 0.4 µg/mL (≈ 3.41 µM); in the assay with HIV-2(ROD) (setting [3]) it was 0.66 ± 0.19 µg/mL (≈ 2.5 µM); in assay [1] (HSV-1 (KOS)), 2.6 ± 1.2 µg/mL (≈ 9.84 µM); in assay [1] (setting [4]), 2.4 ± 0.6 µg/mL (≈ 9.08 µM); in assay [1] (setting [5]), 2 ± 0.5 µg/mL (≈ 7.57 µM); in assay [2] (HSV-2 (G)), 4.4 ± 2.4 µg/mL (≈ 16.7 µM). Further, the half-maximal effective concentration (EC50) was 2.4 ± 0.4 µg/mL (≈ 9.08 µM) in assay [2] (setting [6]); 2 ± 0.4 µg/mL (≈ 7.57 µM) in assay [2] (setting [7]); 2.4 µg/mL (≈ 9.08 µM) in the assay on HSV-1 and HSV-2 strains (TK− HSV isolates, read-out: average EC50); about 2 µg/mL (≈ 7.57 µM) in the assay with HSV-1 and HSV-2 strains (setting [8]); 2.6 to 6.3 µg/mL (≈ 9.84 to 23.8 µM) in the assay with HSV-1 and HSV-2 strains (setting [9]). The “decrease of CCR5 expression on the cell surface” value was 60% in the assay with CCR5 (20 µg/ml), at least 75% in the assay on CCR5 (100 µg/ml) and at least 75% in the assay with CCR5 (500 µg/ml). Also, the figures for the “CCR5 expression, % of control” value in the assay on CCR5 (20 µg/ml), with CCR5 (100 µg/ml) and in the assay with CCR5 (500 µg/ml) were 60%, 38% and 10%, respectively. In addition, the “Cytopathicity (CPE) on macrophages 6 days after infection % CPE” value (shortened to “Cytopathicity (CPE) … after infection % CPE”) is reported as 85% in the assay on HSV-2 (G) (0.0032 µg/ml), 35% with HSV-2 (G) (0.4 µg/ml) and 0–15% in the assay with HSV-2 (G) (2 µg/ml).
`Nc1ncnc2c1ncn2CCOCP(=O)(O)O` [Adefovir, 9-(2-phosphonylmethoxyethyl)adenine]: the EC50 worked out at 0.96 ± 0.24 µg/mL (≈ 3.51 µM) with HIV-1(IIIB); 1.9 ± 1.1 µg/mL (≈ 6.95 µM) in the assay on HIV-2(ROD) (setting [3]); 4.7 ± 1.8 µg/mL (≈ 17.2 µM) in assay [1] (HSV-1 (KOS)); 7 ± 1.4 µg/mL (≈ 25.6 µM) in assay [1] (setting [4]); 6.2 ± 1 µg/mL (≈ 22.7 µM) in assay [1] (setting [5]); 6.3 ± 2.6 µg/mL (≈ 23.1 µM) in assay [2] (HSV-2 (G)). Further, the concentration for a half-maximal effect (EC50) in assay [2] (setting [6]) is 7.5 ± 1.5 µg/mL (≈ 27.5 µM); in assay [2] (setting [7]), 5.9 ± 0.9 µg/mL (≈ 21.6 µM); in the assay with HSV-1 and HSV-2 strains (setting [8]), about 6 µg/mL (≈ 22 µM); with HSV-1 and HSV-2 strains (setting [9]), 2.6 to 6.3 µg/mL (≈ 9.52 to 23.1 µM). The CCR5 decrease result in the assay on CCR5 is recorded as “Neither adefovir nor tenofovir induced a marked CCR5 decrease”. In addition, the “Cytopathicity (CPE) … after infection % CPE” value with HSV-2 (G) (0.0032 µg/ml) is 80%; in the assay with HSV-2 (G) (0.4 µg/ml), 30%; in the assay with HSV-2 (G) (2 µg/ml), 0–5%.
For `C[C@H](Cn1cnc2c(N)ncnc21)OCP(=O)(O)O` [Tenofovir, 9-(2-phosphonylmethoxypropyl)adenine], the EC50 in the assay on HIV-1(IIIB) was found to be 0.36 ± 0.24 µg/mL (≈ 1.25 µM); with HIV-2(ROD), 0.43 ± 0.41 µg/mL (≈ 1.5 µM); in assay [1] (HSV-1 (KOS)), 105 ± 20 µg/mL (≈ 366 µM); in assay [1] (setting [4]), 151 ± 19 µg/mL (≈ 526 µM); in assay [1] (setting [5]), 125 ± 12 µg/mL (≈ 435 µM); in assay [2] (HSV-2 (G)), 122 ± 51 µg/mL (≈ 425 µM). Besides, the EC50 is 121 ± 15 µg/mL (≈ 421 µM) in assay [2] (setting [6]); 139 ± 11 µg/mL (≈ 484 µM) in assay [2] (setting [7]); about 130 µg/mL (≈ 453 µM) in the assay on HSV-1 and HSV-2 strains (setting [8]); 105 to 122 µg/mL (≈ 366 to 425 µM) in the assay with HSV-1 and HSV-2 strains (setting [9]). The CCR5 decrease result in the assay with CCR5 is on record as “Neither adefovir nor tenofovir induced a marked CCR5 decrease”. Moreover, the “Cytopathicity (CPE) … after infection % CPE” value in the assay with HSV-2 (G) (0.0032 µg/ml) is listed as 85%; in the assay on HSV-2 (G) (0.4 µg/ml), 40%; in the assay with HSV-2 (G) (2 µg/ml), 30%.
